Measurements published in patent publication US20220411362A1, “DITERPENOID COMPOUNDS THAT ACT ON PROTEIN KINASE C (PKC)” (K-Gen, Inc., priority 2019, published 2022).
Like-named read-outs stand apart in the source and are kept apart here.

Experiments:
[1] = tested on: HL-60 (Leukemia) cell line; experiment: Proliferation of HL-60; assay type: cell-based
Method: (§1) The diterpenoid compounds were tested in A549, a non-small cell lung cancer cell line harboring a K-Ras activating mutation. Briefly, A549 cells at a density of 1,000 cells/well were seeded in 96-well plates and incubated at 37° C. for 24 hours. A series of different concentrations of compound stocks (500×) were prepared by 3-fold serial dilution in DMSO. These compounds were further diluted in culture media and then added to cells so that the final DMSO concentration was not exceeding 0.25%. After 96 hours of incubation, 50 μL of CellTiter Glo reagent (Promega) was added to each well and luminescence was measured after 10 minutes using EnVision (PerkinElmer). Luminescence from cells treated with DMSO alone was set as Max and % of inhibition was calculated as follows: Inhibition %=(Max−Sample value)/Max×100. Data was analyzed using XL-fit software (ID Business Solutions Ltd.) and IC50, relative IC50, and % of top inhibition was calculated. Some of the compounds in this disclosure were very potent in blocking proliferation of A549 lung cancer cells at low nM range. In addition, potency of inhibiting A549 proliferation correlated well with its binding affinity to PKCs for this series of compounds. In other words, higher affinity binders had stronger inhibitory effects on A549 proliferation. This further support the notion that activation, rather than inhibition, of certain PKC isoforms is required to block proliferation of cancer cells, some of which may harbor K-Ras mutations. This is in sharp contrast to previous literature and common belief that inhibition of PKC is necessary to block cancer cell growth (Kang, 2014, New Journal of Science, 2014:1-36). Data presented here is in agreement with recent findings that many loss-of-function but not gain-of-function mutations of PKC isoforms have been identified in many human cancers (Antal et al., 2015, Cell, 160:489-502).
(§2) The compounds in this disclosure were tested for their potency in blocking proliferation of a few other cancer cells lines, including K-Ras mutant pancreatic cell lines Panc2.13 and KP-4, leukemia cell line HL-60, and lymphoma cell lines Namalwa and Mino. Similar procedures as in Example 67 were followed. Initial cell numbers seeded in 96-well plates were different for different cell lines: 3000 cells/well for Panc2.13; 800-1000 cells/well for KP-4; 5000 cells/well for HL-60; 5000-10000 cells/well for Namalwa and Mino. A ratio ratio of (IC50 of K01)/(IC50 of compound) (data in parenthesis in Table 5) was used to normalize the compound potency from different assay batches to a common comparator […].

[2] = tested on: KP-4 (Pancreatic) cell line; experiment: Proliferation of KP-4; assay type: cell-based
Method: as §1, §2

[3] = tested on: Namalwa (Lymphoma) cell line; experiment: Proliferation of Namalwa; assay type: cell-based; conditions: for IC50: read-out: IC50 in μM Namalwa (Lymphoma); for ratio of (IC50 of K01)/(IC50 of compound), Namalwa: value in parenthesis
Method: as §1, §2

PANC1 cells = experiment: Sphere formation assay (cancer stemness); assay type: cell-based; conditions: Homo sapiens, PANC-1, read-out: concentration exhibiting at least 50% inhibition on the sphere forming efficiency
Method: A group of diterpenoid compounds of the present disclosure were tested to assess their effects on blocking formation of spheres from cancer cell lines such as PANC1, a K-Ras mutant pancreatic cell line. Briefly, PANC1 cells were harvested, re-suspended as single cell suspensions, counted and seeded into Ultra Low Attachment Culture 96-well plate (Corning, Cat #3474) at 100 cells/well in 100 μl of complete media (with 10% FBS) containing 2% Matrigel (Corning, Cat #354234) and DMSO or compounds. Six replicates per condition were seeded. The seeded cells were placed in the 37° C. tissue culture incubator. 10 μl of low serum containing media (with 0.1% FBS) was added to each well every week. Spheres formed after 3-4 weeks were counted. Sphere forming efficiency was expressed as percentage of # of spheres/# of cells seeded.

[4] = tested on: Mino (Lymphoma) cell line; experiment: Proliferation of Mino; assay type: cell-based
Method: as §1, §2

[5] = tested on: Panc2.13 (Pancreatic) cell line; experiment: Proliferation of Panc2.13; assay type: cell-based; conditions: for IC50: read-out: IC50 in μM Panc2.13 (Pancreatic); for ratio of (IC50 of K01)/(IC50 of compound), Panc2.13: value in parenthesis
Method: as §1, §2

[6] = tested on: A549 non-small cell lung cancer cell line; experiment: Proliferation of A549 (CellTiter Glo); assay type: cell-based; conditions: Homo sapiens, read-out: IC50 μM (A549 Cell Line)
Method in brief: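 A549 cells (K-Ras mutant) seeded 1,000/well, 24 h at 37° C, then treated with 3-fold serial dilutions (final DMSO ≤0.25%) for 96 h. Viability by CellTiter Glo luminescence; % inhibition vs DMSO-only Max, curve-fit to give IC50, relative IC50 and % top inhibition.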

[7] = tested on: phosphorylation of CaMKii at T286 in Panc1 cells; experiment: CaMKii phosphorylation in Panc1 cell line (Western blot); assay type: cell-based; conditions: 0.2 μM and 1 μM, 48 hours (FIG. 5)
Method: Panc1 (a pancreatic cancer cell line) cells (˜5-8 millions) were seeded in 10 cm dishes (or ˜2 millions in 6 cm dishes) and treated next day with prostratin (K-101, 0.2 μM and 1 μM) or 0.02 μM and […] of K101-C1347, -C134801, and -C134802 for 48 hours. Cells were then collected/lysed for Western blot analysis. Protein quantification, SDS-PAGE, and Western blot procedures were performed as described in Example 65, except that a different lysis buffer (1 ml of 10×TNE [20 mL 1M Tris pH7.5; 30 mL 5M NaCl; 2 mL 0.5M EDTA; 48 mL d2H2O], 1 ml of 10% NP40, 7.7 mL of dH2O, 100 μL of 10× Protease inhibitors, 100 μL of 10× Phosphatase inhibitors, and 10 μl DTT) was used. To assess the effect of diterpenoid compounds on CaMKii phosphorylation, a phospho-specific antibody P-CaMKii (T286) (Abcam, cat #32678) was used for detection. Phosphorylation of CaMKii at T286 is a marker for activation of CaMKii kinase in the Wnt/Ca^2+ signaling pathway when […] and thus a downstream marker for inhibition of K-Ras stemness (Wang et al., Cell. 2015, 163(5):1237-51).

C1b domain of human PKCε = target: T1, C1b domain of human PKCε (Homo sapiens, UniProt Q02156); experiment: Competitive 3H-PDBu binding to C1b domain of PKCε
T1 construct: Genes encoding C1b domains of human PKCα, δ, ε, θ, and PKD1 (PKCμ) were synthesized; made in house; host or cells: E. coli BL21(DE3)
Method in brief: (§3)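 Affinity was measured by competition with the radiotracer 3H-PDBu for recombinant human GST-C1b fusion proteins expressed in E. coli BL21(DE3). Incubation ran 10 minutes at 37° C with shaking, then 20 minutes on ice, and filter-trapped 3H-PDBu was counted by scintillation. IC50 values were converted to Ki by Cheng-Prusoff using the experimentally determined Kd for each protein preparation.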

C1b domain of human PKCα = target: T2, C1b domain of human PKCα (Homo sapiens, UniProt P17252); experiment: biochemical; assay type: binding; conditions: 3H-PDBu competition
T2 construct: Genes encoding C1b domains of human PKCα, δ, ε, θ, and PKD1 (PKCμ) were synthesized; made in house; host or cells: E. coli BL21(DE3)
Method in brief: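 Competitive binding against 3H-PDBu tracer used recombinant GST-C1b fusion protein expressed in E. coli. Incubation ran 10 min at 37°C with shaking, then 20 min on ice, followed by filtration and scintillation counting of trapped 3H-PDBu. Affinity was derived using each protein preparation's experimentally determined Kd for 3H-PDBu.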

C1b domain of human PKCθ = target: T3, C1b domain of human PKCθ (Homo sapiens, UniProt Q04759); experiment: Competitive 3H-PDBu binding to C1b domain of PKCθ
T3 construct: Genes encoding C1b domains of human PKCα, δ, ε, θ, and PKD1 (PKCμ) were synthesized; made in house; host or cells: E. coli BL21(DE3)
T3 sequence (Q04759 231-281 limits assumed): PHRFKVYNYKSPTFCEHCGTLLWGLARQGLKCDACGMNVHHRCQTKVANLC
Method in brief: as §3

C1b domain of human PKCδ = target: T4, C1b domain of human PKCδ (Homo sapiens, UniProt Q05655); experiment: Competitive 3H-PDBu binding to C1b domain of PKCδ; conditions: Ki PKCδ, 3H-PDBu competition
T4 construct: Genes encoding C1b domains of human PKCα, δ, ε, θ, and PKD1 (PKCμ) were synthesized; made in house; host or cells: E. coli BL21(DE3)
Method in brief: as §3

[8] = target: T5, C1b domain of human PKD1 (PKCμ) (Homo sapiens, UniProt Q15139); experiment: biochemical; assay type: binding
T5 construct: Genes encoding C1b domains of human PKCα, δ, ε, θ, and PKD1 (PKCμ) were synthesized; made in house; host or cells: E. coli BL21(DE3)
T5 sequence (Q15139 270-320 limits assumed): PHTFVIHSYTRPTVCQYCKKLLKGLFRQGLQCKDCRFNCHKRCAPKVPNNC
Method in brief: as §3

[9] = tested on: phosphorylation of PKCμ, PKCδ and Erk1/2 in A549 lung cancer cells; assay type: cell-based; conditions: 0.3 μM, 30 minutes, Western blot (FIG. 1)
Method: Cells were then treated with different drugs at indicated concentrations for 30 minutes. […] Imagequant LAS4000 (GE) was used to scan membranes if secondary antibodies anti-mouse IgG HRP conjugate or anti-rabbit IgG HRP conjugate (dilutions from 1:2000-1:10000) were used. For ProteinSimple Wes system, manufacture's procedure was followed (ProteinSimple 12-230 kDa Wes Separation Module) for sample preparation, loading, running, and data analysis.
Phosphorylation of these sites has been linked to acute activation or catalytic activity of the PKC isoforms and Erk1/2. High level of phosphorylation indicates strong activation.

[10] = Homo sapiens, HL-60, read-out: IC50 in μM HL-60 (Leukemia)
[11] = Homo sapiens, KP-4, read-out: IC50 in μM KP-4 (Pancreatic)
[12] = Homo sapiens, MINO, read-out: IC50 in μM Mino (Lymphoma)

T4 sequence (Q05655 230-280 limits assumed): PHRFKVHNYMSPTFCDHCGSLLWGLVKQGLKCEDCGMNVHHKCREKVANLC
T1 sequence (Q02156 242-292 limits assumed): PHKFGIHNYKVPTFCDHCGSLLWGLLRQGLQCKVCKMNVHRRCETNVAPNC

Compound	IC50 [3] [µM]	IC50 [5] [µM]	ratio of (IC50 of K01)/(IC50 of compound), HL-60 ([1]; HL-60; value in parenthesis)	IC50 [1, 10] [µM]	IC50 [2, 11] [µM]	Ki (C1b domain of human PKCε) [nM]	ratio of (IC50 of K01)/(IC50 of compound), Namalwa [3]	IC50 (PANC1 cells) [nM]	IC50 [4, 12] [µM]	ratio of (IC50 of K01)/(IC50 of compound), Mino ([4]; Mino; value in parenthesis)	Ki (C1b domain of human PKCθ) [nM]	Ki (C1b domain of human PKCδ) [nM]	ratio of (IC50 of K01)/(IC50 of compound), Panc2.13 [5]	IC50 ([6]; A549, 96 h) [µM]	Ki [8] [nM]	further results
CC(=O)O[C@@]12C[C@@H](C)[C@@]3(O)[C@@H](C=C(CO)C[C@]4(O)C(=O)C(C)=C[C@@H]34)[C@@H]1C2(C)C [Compound K101, prostratin, reference compound]	0.06 to 0.1	0.6 to 1														IC50 ([1]; Homo sapiens, HL-60; read-out: IC50 in μM HL-60 (Leukemia)): 0.2 to 0.6 µM; IC50 ([2]; Homo sapiens, KP-4; read-out: IC50 in μM KP-4 (Pancreatic)): 0.2 to 0.6 µM; IC50 (PANC1 cells; PANC1 single cell suspension, spheres counted after 3-4 weeks): ≤ 500 nM; IC50 ([4]; Homo sapiens, MINO; read-out: IC50 in μM Mino (Lymphoma)): 0.06 to 0.1 µM; IC50 ([6]; A549, 96 hours incubation, CellTiter Glo): 0.03 to 0.06 µM; phosphorylation of CaMKii at T286 [7]: induced phosphorylation of CaMKii at T286
CC1=C[C@H]2[C@@]3(O)[C@H](C)C[C@]4(OC(=O)C(C)(C)C)[C@H]([C@@H]3C=C(CO)C[C@]2(O)C1=O)C4(C)C [Compound K101-C1308]	0.03 to 0.06	0.1 to 0.2	5.29	0.06 to 0.1	0.1 to 0.2	1 to 30	1.38	≤ 150	0.01 to 0.03	6.82	30 to 60	1 to 30	6.29	0.06 to 0.1	5 to 10	Ki (C1b domain of human PKCα; Ki PKCα): 800 to 1000 nM
CC1=C[C@H]2[C@@]3(O)[C@H](C)C[C@]4(OC(=O)[C@@H](N)CCCc5ccccc5)[C@H]([C@@H]3C=C(CO)C[C@]2(O)C1=O)C4(C)C [Compound K101-C1319]	0.03 to 0.06	0.2 to 0.6	1.79	0.03 to 0.06	0.1 to 0.2	30 to 60	1.53	≤ 1500	0.01 to 0.03	6	5 to 10	< 5	3.65	0.06 to 0.1	< 5	Ki PKCα (C1b domain of human PKCα): E (E=>60 nM and ≤10 nM); phosphorylation of PKC (PKD/PKCμ), PKCδ and Erk1/2 [9]: induced high levels of phosphorylation
